Assay results reported in ChEMBL document CHEMBL3600325, “Inhibitory effect of pironetin analogue/colchicine hybrids on the expression of the VEGF, hTERT and c-Myc genes” (2015).

What was measured:
Format in all cases: functional
Design in all cases: scale not given: the % may be the effect or the level left
HT-29 [1] = assay: Inhibition of VEGF mRNA expression in human HT-29 cells assessed as VEGF mRNA level at 10 uM incubated for 48 hrs by RT-PCR method relative to control
HT-29 [2] = assay: Inhibition of VEGF mRNA expression in human HT-29 cells assessed as VEGF mRNA level at 50 nM incubated for 48 hrs by RT-PCR method relative to control
HT-29 [3] = assay: Inhibition of Myc mRNA expression in human HT-29 cells assessed as Myc mRNA level at 5 ug/ml incubated for 48 hrs by RT-PCR method relative to control
HT-29 [4] = assay: Inhibition of hTERT mRNA expression in human HT-29 cells assessed as hTERT mRNA level at 10 uM incubated for 48 hrs by RT-PCR method relative to control
HT-29 [5] = assay: Inhibition of VEGF mRNA expression in human HT-29 cells assessed as VEGF mRNA level at 5 ug/ml incubated for 48 hrs by RT-PCR method relative to control
HT-29 [6] = assay: Inhibition of Myc mRNA expression in human HT-29 cells assessed as Myc mRNA level at 50 nM incubated for 48 hrs by RT-PCR method relative to control
HT-29 [7] = assay: Inhibition of VEGF production in human HT-29 cells assessed as VEGF level at 5 ug/ml incubated for 72 hrs by ELISA method relative to control
HT-29 [8] = assay: Inhibition of hTERT mRNA expression in human HT-29 cells assessed as hTERT mRNA level at 5 ug/ml incubated for 48 hrs by RT-PCR method relative to control
HT-29 [9] = assay: Inhibition of hTERT mRNA expression in human HT-29 cells assessed as hTERT mRNA level at 50 nM incubated for 48 hrs by RT-PCR method relative to control
HT-29 [10] = assay: Inhibition of Myc mRNA expression in human HT-29 cells assessed as Myc mRNA level at 10 uM incubated for 48 hrs by RT-PCR method relative to control

| Structure (SMILES) | Activity (HT-29 [1]) [%] | Activity (HT-29 [2]) [%] | Activity (HT-29 [3]) [%] | Activity (HT-29 [4]) [%] | Activity (HT-29 [5]) [%] | Activity (HT-29 [6]) [%] | Activity (HT-29 [7]) [%] | Activity (HT-29 [8]) [%] | Activity (HT-29 [9]) [%] | Activity (HT-29 [10]) [%] |
| --- | --- | --- | --- | --- | --- | --- | --- | --- | --- | --- |
| COc1cc2c(c(OC)c1OC)-c1ccc(OC)c(=O)cc1[C@@H](NC(=O)CCCCCCCCCCC(=O)OCCCCC[C@@H]1CC=CC(=O)O1)CC2 | 8 | 36 | 5 | 27 | 3 | 60 | 64 | 19 | 75 | 13 |
| COc1cc2c(c(OC)c1OC)-c1ccc(OC)c(=O)cc1[C@@H](NC(=O)CCCCCCCCCCC(=O)OCC[C@H](C[C@H](O)C[C@@H]1CC=CC(=O)O1)OC)CC2 | 9 | 51 | 15 | 55 | 7 | 94 | 44 | 42 | 81 | 32 |
| COc1cc2c(c(OC)c1OC)-c1ccc(OC)c(=O)cc1[C@@H](NC(=O)CCCC(=O)OCCCCC[C@@H]1CC=CC(=O)O1)CC2 |  |  | 16 |  | 6 |  | 45 | 67 |  |  |
| C/C=C/C[C@H](C)[C@@H](OC)[C@@H](C)[C@H](O)C[C@H]1OC(=O)C=C[C@H]1CC [PIRONETIN] |  |  | 118 |  | 48 |  | 50 | 119 |  |  |
| COc1cc2c(c(OC)c1OC)-c1ccc(OC)c(=O)cc1[C@@H](NC(=O)CCCC(=O)OCC[C@H](C[C@H](C)C[C@@H]1CC=CC(=O)O1)OC)CC2 |  |  | 97 |  | 70 |  | 44 | 125 |  |  |
| CO[C@H](CCO)C[C@H](O)C[C@@H]1CC=CC(=O)O1 | 40 | 90 | 111 | >100 | 44 | >100 | 93 | 125 | >100 | 66 |
| COc1cc2c(c(OC)c1OC)-c1ccc(OC)c(=O)cc1[C@@H](NC(C)=O)CC2 [COLCHICINE] | 5 | 48 | 6 | 30 | 4 | 19 | 40 | 20 | 43 | 6 |
